These results are taken from patent US7022716B2, “Cyclic amine phenyl beta-3 adrenergic receptor agonists” (Wyeth, priority 2000, dated 2006).

The target in this test is T1, human β3 adrenergic receptor (Homo sapiens, UniProt P13945).
T1 construct: Full length β3 AR clones (402 amino acids) containing the last 6 amino acids of hβ3-AR are prepared; expressed in transfected cells; host or cells: CHO (Chinese hamster ovary) cells
T1 sequence (P13945 whole entry): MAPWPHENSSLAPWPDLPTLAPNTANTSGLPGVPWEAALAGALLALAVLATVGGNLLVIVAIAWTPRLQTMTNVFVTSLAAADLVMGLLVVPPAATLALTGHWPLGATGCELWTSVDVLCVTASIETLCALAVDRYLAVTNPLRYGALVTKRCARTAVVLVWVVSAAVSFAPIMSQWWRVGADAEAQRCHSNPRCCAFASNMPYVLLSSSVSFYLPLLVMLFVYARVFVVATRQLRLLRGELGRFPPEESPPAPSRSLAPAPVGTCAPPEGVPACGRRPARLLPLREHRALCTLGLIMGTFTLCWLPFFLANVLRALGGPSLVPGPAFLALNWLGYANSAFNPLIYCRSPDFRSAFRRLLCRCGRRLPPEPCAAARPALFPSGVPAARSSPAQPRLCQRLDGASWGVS
Nature of the test: cAMP (SPA) response in CHO cells transfected with human β3 adrenergic receptor. It is filed as cell-based. On the set-up: key: fraction of maximal isoproterenol (10^-5 M) response. The settings on record: maximal response relative to maximal response of isoproterenol at 10^-5 M. As for the experimental part: Binding to the receptors was measured in Chinese Hamster ovary (CHO) cells that were transfected with adrenergic receptors.
The corresponding primer sequences are described in Mantzoros, C. […] The four fragments are ligated into a pUC 18 plasmid (Gibco-BRL) and sequenced.
CHO cells were grown in 24-well tissue culture plates in Dulbecco's Modified Eagle Media with 10% fetal bovine serum, MEM non-essential amino acids, Penicillin-Streptompycin and Geneticin. On the day of test procedure, growth medium was replaced with preincubation media (Dulbecco's Modified Eagle, Media) and incubated for 30 minutes at 37° C. […] Test compounds were tested over a concentration range of 10^−9 M to 10^−5 M for β3 cells and 10^−8 to 10^−4 M for β1 and β2 transfected cells. Isoproterenol (10^−5 M) was used as an internal standard for comparison of activity. Cells were incubated at 37° C. on a rocker for 30 min with the β3 cells and 15 min for β1 and β2 cells. Incubation was stopped with the addition of 0.2N HCl and neutralized with 2.5N NaOH. The plates, containing the cells and neutralized media, were stored at −20 degrees celsius until ready to test for cAMP using the SPA test kit (Amersham).
Data Analysis and Results: Data collected from the SPA test procedure were analyzed as percent of the maximal isoproterenol response at 10^−5 M. Activity curves were plotted using the SAS statistical and graphics software.
In the case of “5-[4-(4-{[4-(2S)-2-(3-Bromoisoxazol-5-yl)-2-hydroxyethyl]amino}piperidine-1-yl)benzyl]-1,3-thiazolidine-2,4-dione [Example 122]”, the “IA(β3)” value came out at 0.46.

`O=C1NC(=O)C(Cc2ccc(N3CCC(NC[C@H](O)COc4cccc5[nH]c(=O)[nH]c45)CC3)c(F)c2)S1` (stereo partly drawn) [Example 67, 5-(3-Fluoro-4-{4-[(2S)-2-hydroxy-3-(2-oxo-2,3-dihydro-1H-benzoimidazol-4-yloxy)-propylamino]-piperidin-1-yl}-benzyl)-thiazolidine-2,4-dione]: the “IA(β3)” value came to 1.06.

Take `O=C1NC(=O)C(=Cc2ccc(N3CCC(NC[C@H](O)COc4cccc5[nH]c(=O)[nH]c45)CC3)c(Br)c2)S1` [Example 68, 5-(3-Bromo-4-{4-[(2S)-2-hydroxy-3-(2-oxo-2,3-dihydro-1H-benzoimidazol-4-yloxy)-propylamino]-piperidin-1-yl}-benzylidene)-thiazolidine-2,4-dione]: the “IA(β3)” value was 1.

On to `O=C1NC(=S)SC1=Cc1ccc(N2CCC(NC[C@H](O)COc3ccc(O)cc3)CC2)cc1` [Example 82, 5-(4-{4-[(2S)-2-Hydroxy-3-(4-hydroxy)-propylamino]-piperidin-1-yl}-benzylidene)-2-thioxo-thiazolidin-4-one], for which the “IA(β3)” value worked out at 1.07.

For the compound `CCOC(=O)c1ccc(N2CCC(NC[C@H](O)c3cccc(Cl)c3)CC2)cc1.Cl` [Example 181, {4-[(2R)-2-(3-Chloro-phenyl)-2-hydroxy-ethylamino]-piperidin-1-yl}-benzoic acid ethyl ester hydrochloride], the “IA(β3)” value was 0.56.

Regarding `CS(=O)(=O)Nc1cc([C@@H](O)CNC2CCN(c3ccc(C(=O)NCC(=O)O)cc3)CC2)ccc1O` [Example 197, [(4-{4-[((2R)-2-Hydroxy-2-{4-hydroxy-3-[(methylsulfonyl)amino]phenyl}ethyl)amino]-1-piperidinyl}benzoyl)amino]acetic acid], the “IA(β3)” value was determined as 0.94.

As for `CC(C)C[C@H](NC(=O)c1ccc(N2CCC(NC[C@H](O)c3ccc(O)c(NS(C)(=O)=O)c3)CC2)cc1)C(=O)O` [Example 199, (2S)-2-(4-{4-[(2R)-2-Hydroxy-2-(4-hydroxy-3-methanesulfonylamino-phenyl)-ethylamino]-piperidin-1-yl}-benzoylamino)-4-methyl-pentanoic acid], the “IA(β3)” value was determined as 1.

Regarding `CC(C)[C@H](NC(=O)c1ccc(N2CCC(NC[C@H](O)c3ccc(O)c(NS(C)(=O)=O)c3)CC2)cc1)C(=O)O` [Example 203, (2S)-2-(4-{4-[(2R)-2-Hydroxy-2-(4-hydroxy-3-methanesulfonylamino-phenyl)-ethylamino]-piperidin-1-yl}-benzoylamino)-3-methyl-butyric acid], the “IA(β3)” value is 1.1.

Take `COc1ccc(S(=O)(=O)Nc2ccc(N3CCC(NCC(O)c4ccccc4)CC3)cc2)cc1` (stereo not drawn) [Example 255, N-{4-[4-(2-Hydroxy-2-phenyl-ethylamino)-piperidin-1-yl]-phenyl}-4-methoxy-benzenesulfonamide]: the “IA(β3)” value is 0.72.

For `COc1ccc(S(=O)(=O)Nc2ccc(N3CCC(NCC(O)c4cccc(O)c4)CC3)cc2)cc1` (stereo not drawn) [Example 256, N-(4-{4-[2-Hydroxy-2-(3-hydroxy-phenyl)-ethylamino]-piperidin-1-yl}-phenyl)-4-methoxy-benzenesulfonamide], the “IA(β3)” value amounted to 0.85.

In the case of `CC(=O)Nc1ccc(S(=O)(=O)Nc2ccc(N3CCC(NCC(O)c4cccc(O)c4)CC3)cc2)cc1` (stereo not drawn) [Example 257, N-[4-(4-{4-[2-Hydroxy-2-(3-hydroxy-phenyl)-ethylamino]-piperidin-1-yl}-phenylsulfamoyl)-phenyl]-acetamide], the “IA(β3)” value came to 0.88.

In the case of `CC(=O)Nc1ccc(S(=O)(=O)Nc2ccc(N3CCC(NC[C@H](O)c4ccccc4)CC3)cc2)cc1` [Example 258, N-(4-{4-[4-((2R)-2-Hydroxy-2-phenyl-ethylamino)-piperidin-1-yl]-phenylsulfamoyl}-phenyl)-acetamide], the “IA(β3)” value was found to be 0.7.

In the case of `CC(=O)Nc1ccc(S(=O)(=O)Nc2ccc(N3CCC(NCC(O)c4ccc(O)cc4)CC3)cc2)cc1` (stereo not drawn) [Example 259, N-(4-{[4-(4-{[2-Hydroxy-2-(4-hydroxyphenyl)ethyl]amino}-1-piperidinyl)-anilino]sulfonyl}phenyl)acetamide], the “IA(β3)” value is on record as 0.97.

For the compound `COc1ccc(S(=O)(=O)Nc2ccc(N3CCC(NC[C@H](O)c4cccc(Cl)c4)CC3)cc2)cc1` [Example 260, N-[4-(4-{[(2R)-2-(3-Chlorophenyl)-2-hydroxyethyl]amino}-1-piperidinyl)phenyl]-4-methoxybenzenesulfonamide], the “IA(β3)” value amounted to 0.63.

With `COc1ccc(S(=O)(=O)Nc2ccc(N3CCC(NC[C@H](O)c4ccccc4)CC3)cc2)cc1` [Example 261, N-[4-(4-{[(2R)-2-Hydroxy-2-phenylethyl]amino}-1-piperidinyl)phenyl]-4-methoxybenzenesulfonamide], the “IA(β3)” value turned out to be 0.73.

Regarding `CC(=O)Nc1ccc(S(=O)(=O)Nc2ccc(N3CCC(NC[C@H](O)c4ccc(O)c(O)c4)CC3)cc2)cc1` [Example 263, N-(4-{[4-(4-{[(2R)-2-(3,4-Dihydroxyphenyl)-2-hydroxyethyl]amino}-1-piperidinyl)anilino]sulfonyl}phenyl)acetamide], the “IA(β3)” value is on record as 0.93.

On to `CC(=O)Nc1ccc(S(=O)(=O)Nc2ccccc2N2CCC(NCC(O)c3cccc(O)c3)CC2)cc1` (stereo not drawn) [Example 264, N-(4-{[2-(4-{[2-Hydroxy-2-(3-hydroxyphenyl)ethyl]amino}-1-piperidinyl)anilino]-sulfonyl}phenyl)acetamide], for which the “IA(β3)” value is 0.37.

For the compound `CC(=O)Nc1ccc(S(=O)(=O)Nc2ccccc2N2CCC(NC[C@H](O)c3ccc(O)c(O)c3)CC2)cc1` [Example 265, N-(4-{[2-(4-{[(2R)-2-(3,4-Dihydroxyphenyl)-2-hydroxyethyl]amino}-1-piperidinyl)-anilino]sulfonyl}phenyl)acetamide], the “IA(β3)” value was 0.8.

In the case of `COc1ccc(S(=O)(=O)Nc2ccc(N3CCC(NC[C@H](O)c4ccc(O)c(O)c4)CC3)cc2)cc1` [Example 266, N-[4-(4-{[(2R)-2-(3,4-Dihydroxyphenyl)-2-hydroxyethyl]amino}-1-piperidinyl)phenyl]-4-methoxybenzenesulfonamide], the “IA(β3)” value stood at 0.86.

Consider `COc1cc(C(O)CNC2CCN(c3ccc(NS(=O)(=O)c4ccc(NC(C)=O)cc4)cc3)CC2)ccc1O` (stereo not drawn) [Example 267, N-(4-{[4-(4-{[2-Hydroxy-2-(4-hydroxy-3-methoxyphenyl)ethyl]amino}-1-piperidinyl)anilino]sulfonyl}phenyl)acetamide], for which the “IA(β3)” value was found to be 0.99.

For the compound `CC(=O)Nc1ccc(S(=O)(=O)Nc2ccc(N3CCC(NCC(O)c4ccc(O)cc4O)CC3)cc2)cc1` (stereo not drawn) [Example 268, N-(4-{[4-(4-{[2-(2,4-Dihydroxyphenyl)-2-hydroxyethyl]amino}-1-piperidinyl)-anilino]sulfonyl}phenyl)acetamide], the “IA(β3)” value amounted to 0.64.

For the compound `CC(=O)Nc1ccc(S(=O)(=O)Nc2ccc(N3CCC(NCC(O)c4ccc(O)c(NS(C)(=O)=O)c4)CC3)cc2)cc1` (stereo not drawn) [Example 270, N-{4-[(4-{4-[(2-Hydroxy-2-{4-hydroxy-3-[(methylsulfonyl)amino]phenyl}ethyl)amino]-1-piperidinyl}anilino)sulfonyl]phenyl}acetamide], the “IA(β3)” value was 1.09.

For the compound `CCCCCCNC(=O)Nc1ccc(S(=O)(=O)Nc2ccc(N3CCC(NCC(O)c4ccc(C)nc4)CC3)cc2)cc1` (stereo not drawn) [Example 271, 4-{[(Hexylamino)carbonyl]amino}-N-[4-(4-{[2-hydroxy-2-(6-methyl-3-pyridinyl)ethyl]amino}-1-piperidinyl)phenyl]benzenesulfonamide], the “IA(β3)” value is on record as 0.84.

With `CC(=O)Nc1ccc(S(=O)(=O)Nc2ccc(N3CCC(NC[C@H](O)COc4ccccc4)CC3)cc2)cc1` [Example 272, N-(4-{[4-(4-{[(2S)-2-Hydroxy-3-phenoxypropyl]amino}-1-piperidinyl)anilino]-sulfonyl}phenyl)acetamide], the “IA(β3)” value came to 0.57.

As for `CC(=O)Nc1ccc(S(=O)(=O)Nc2ccc(N3CCC(NCC(O)c4cc(C(N)=O)c5[nH]ccc5c4)CC3)cc2)cc1` (stereo not drawn) [Example 273, 5-[2-({1-[4-({[4-(Acetylamino)phenyl]sulfonyl}amino)phenyl]-4-piperidinyl}amino)-1-hydroxyethyl]-1H-indole-7-carboxamide], the “IA(β3)” value is given as 1.05.

With `CC(=O)Nc1ccc(S(=O)(=O)Nc2ccc(N3CCC(NC[C@H](O)COc4cccc5[nH]c(=O)[nH]c45)CC3)cc2)cc1` [Example 274], the “IA(β3)” value amounted to 1.15.

For the compound `CCCCCCNC(=O)Nc1ccc(S(=O)(=O)Nc2ccc(N3CCC(NC[C@H](O)COc4cccc5[nH]c(=O)[nH]c45)CC3)cc2)cc1` [Example 275, 4-{[(Hexylamino)carbonyl]amino}-N-{4-[4-({(2S)-2-hydroxy-3-[(2-oxo-2,3-dihydro-1H-benzimidazol-4-yl)oxy]propyl}amino)-1-piperidinyl]phenyl}benzenesulfonamide], the “IA(β3)” value was 0.73.
